What was measured:
[1] = molecular target: T1, human Rheb protein (1–169) (Homo sapiens, UniProt Q15382); assay: Isothermal calorimetry (ITC) of binding to Rheb
T1 construct: human Rheb protein (1–169) was purified from BL21 (DE3) Escherichia coli; His-Smt (His-SUMO) (N, cleaved yes); made in house; host or cells: BL21 (DE3) Escherichia coli
Description: For the STD-NMR fragment-based screen, HMQC-NMR, ITC, and crystallography, human Rheb protein (1–169) was purified from BL21 (DE3) Escherichia coli using a His-Smt-Rheb expression vector. The cell paste was lysed in lysis buffer (50 mM HEPES pH 7.5, 0.5 M NaCl, 5% Glycerol, 1% CHAPS, EDTA-free protease inhibitor tablets, lysozyme to 1 mg mL^−1, benzonase 250 U), sonicated, and purified on a HiTrap Ni Chelating Column (GE Healthcare) using the following buffer: 50 mM HEPES pH 7.5, 0.5 M NaCl, 5% Glycerol, and imidazole increasing in concentration from 5 mM to 500 mM. The His-Smt tag was cleaved using a Ulp1 enzyme and dialyzed into 50 mM HEPES pH 7.5, 0.5 M NaCl, 5% glycerol. The resultant protein was again purified on a Ni Chelating column to remove the Ulp1 enzyme and His-Smt tag and then purified by size exclusion chromatography on a Sephacryl S-100 26/60 column into the following final buffer: 20 mM NaPhos pH 7.0, 100 mM NaCl, 5 mM MgCl2, 2 mM TCEP. For HMQC NMR, ^15N-labeled Rheb was generated using the same protocol but grown in minimal medium supplemented with ^15N-labeled amino acids.
Supplementary Figure 8. Measurement of binding constant of NR1 with Rheb using isothermal
(1 picture or pasted object on this page, not shown here)

[2] = test system: T202/Y204pERK1/2 (Ras/ERK pathway) in MCF-7 cells; assay: EGF-induced T202/Y204pERK1/2 Western blot in MCF-7 cells; type: cell-based, human; details: MCF-7 serum-starved 16 h, compound 90 min, 100 ng mL^−1 EGF
Description: MCF-7 cells were serum-starved for 16 h and treated with compound for 90 min before cell lysis and Western blot analysis. For insulin-stimulated cells, 100 nM insulin was added 30 min before cell lysis. For EGF-stimulated cells, 100 ng mL^−1 EGF was added 10 min before cell lysis. c Rap1 activity was detected in lysates loaded in vitro with either GDP or GTPγS and treated with NR1 at the indicated concentrations. This was followed by a subsequent pulldown of GST-RalGDS-RBD. Bound Rap1 was detected by Western blot. d Evaluation of NR1 in a LAM patient-derived cell line (TRI102) under replete and serum-starved conditions. For replete conditions, TRI102 cells were treated for 90 min with compound in DMEM + 10% FBS. For serum-starved conditions, TRI102 cells were serum-starved 16 h and then treated for 90 min with compound prior to cell lysis and Western blot analysis. e HEK293 cells co-transfected with the indicated mTOR constructs and HA-GST-S6K1 were starved of amino acids or treated with NR1. To assess mTORC1 activity, an HA IP was performed and Western blots probed for ^T389pS6K1. f Chronic treatment of PC3 cells with NR1 to evaluate the inhibition of mTORC1 (using ^T389pS6K1) versus mTORC2 (using ^S473pAKT). PC3 cells were treated with compound under replete conditions for 24 h prior to cell lysis and Western blot analysis. […]

[3] = test system: mTORC1 activity (S240/244pS6) in skeletal muscle; assay: PD study: feeding-induced mTORC1 activation in gastrocnemius muscle; type: in vivo, mouse; details: mice fasted 16 h, 30 mg kg^−1 IP, re-fed 2 h
Description: The selective inhibition of mTORC1 activation by NR1 in vitro and in cell-based systems prompted us to evaluate the effect of this compound on mTORC1 activity in vivo. […] In particular, the plasma concentration of NR1 was sustained over 5 µM for 2 h after IP administration of a 30 mg kg^−1 dose (Supplementary Fig. 10). We therefore carried out a pharmacodynamic (PD) study to evaluate the efficacy of NR1 at inhibiting mTORC1 signaling in vivo. In this experiment, mice were starved overnight to achieve a low basal level of mTORC1 activation (pre-dose). After a 16 h fast, the animals were treated with either vehicle or 30 mg kg^−1 NR1 and allowed to re-feed for 2 h before sacrifice and tissue collection. mTORC1 activity was measured by quantification of ^S240/244pS6 by Western blot analysis with a specific antibody. We chose kidney and gastrocnemius muscle as target tissues due to the relevance of mTORC1 in renal cell carcinoma[51] and angiomyolipomas in TSC and LAM[12] and for its important role in the regulation of protein synthesis and muscle mass[52]. The results are summarized in Fig. 6 for skeletal muscle and Supplementary Fig. 11 for kidney.
Fig. 6 NR1 inhibits feeding-induced mTORC1 activation in skeletal muscle. […] After 2 h, gastrocnemius muscle was collected, and ^S240/244pS6 levels were measured by Western blot and quantified. […]

T1 sequence (Q15382 1-169): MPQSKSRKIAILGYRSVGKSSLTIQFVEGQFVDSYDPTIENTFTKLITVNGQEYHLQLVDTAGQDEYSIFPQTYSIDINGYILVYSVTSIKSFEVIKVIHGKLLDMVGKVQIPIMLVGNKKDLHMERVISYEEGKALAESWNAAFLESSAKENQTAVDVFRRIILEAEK

Question: What does the source list for `CN(C)C(=O)c1ccc(Cn2c(C(=O)O)cc3c(Br)cc(Sc4ccc(Cl)c(Cl)c4)cc32)cc1` [NR1, 4-bromo-6-(3,4-dichlorophenylthio)-1-(4-(dimethylcarbamoyl)benzyl)-1H-indole-2-carboxylic acid]?
Answer: Kd [1]: 1500 nM; ΔH of binding [1]: –0.315 kcal mol^−1; EGF-induced phosphorylation of T202/Y204pERK1/2 [2]: did not inhibit; T37/46 4E-BP1 in skeletal muscle [3]: clear band shift; mTORC1 activity (S240/244pS6) in skeletal muscle versus vehicle [3]: significantly reduced mTORC1 activity

From publication PMC5803267, “A small molecule inhibitor of Rheb selectively targets mTORC1 signaling” (Nature Communications, 2018)
